Reference: patent publication US20260226076A1, “FUSED MULTICYCLIC COMPOUNDS AND THEIR USE AS PARP1 INHIBITORS” (LAEKNA THERAPEUTICS SHANGHAI CO., LTD., priority 2022, published 2026)
Read-outs that look alike come from different tables or passages of the source.

How the values were obtained:
[1] = biological target: PARP1 (Homo sapiens, UniProt P09874); assay: PARP1-DNA enzymatic trapping assay; format: biochemical; conditions: 10 nM PARP1, 5 nM DNA probe, 2 mM NAD+, fluorescence polarization read at 30 minutes
Sequence of PARP1 (P09874 whole entry): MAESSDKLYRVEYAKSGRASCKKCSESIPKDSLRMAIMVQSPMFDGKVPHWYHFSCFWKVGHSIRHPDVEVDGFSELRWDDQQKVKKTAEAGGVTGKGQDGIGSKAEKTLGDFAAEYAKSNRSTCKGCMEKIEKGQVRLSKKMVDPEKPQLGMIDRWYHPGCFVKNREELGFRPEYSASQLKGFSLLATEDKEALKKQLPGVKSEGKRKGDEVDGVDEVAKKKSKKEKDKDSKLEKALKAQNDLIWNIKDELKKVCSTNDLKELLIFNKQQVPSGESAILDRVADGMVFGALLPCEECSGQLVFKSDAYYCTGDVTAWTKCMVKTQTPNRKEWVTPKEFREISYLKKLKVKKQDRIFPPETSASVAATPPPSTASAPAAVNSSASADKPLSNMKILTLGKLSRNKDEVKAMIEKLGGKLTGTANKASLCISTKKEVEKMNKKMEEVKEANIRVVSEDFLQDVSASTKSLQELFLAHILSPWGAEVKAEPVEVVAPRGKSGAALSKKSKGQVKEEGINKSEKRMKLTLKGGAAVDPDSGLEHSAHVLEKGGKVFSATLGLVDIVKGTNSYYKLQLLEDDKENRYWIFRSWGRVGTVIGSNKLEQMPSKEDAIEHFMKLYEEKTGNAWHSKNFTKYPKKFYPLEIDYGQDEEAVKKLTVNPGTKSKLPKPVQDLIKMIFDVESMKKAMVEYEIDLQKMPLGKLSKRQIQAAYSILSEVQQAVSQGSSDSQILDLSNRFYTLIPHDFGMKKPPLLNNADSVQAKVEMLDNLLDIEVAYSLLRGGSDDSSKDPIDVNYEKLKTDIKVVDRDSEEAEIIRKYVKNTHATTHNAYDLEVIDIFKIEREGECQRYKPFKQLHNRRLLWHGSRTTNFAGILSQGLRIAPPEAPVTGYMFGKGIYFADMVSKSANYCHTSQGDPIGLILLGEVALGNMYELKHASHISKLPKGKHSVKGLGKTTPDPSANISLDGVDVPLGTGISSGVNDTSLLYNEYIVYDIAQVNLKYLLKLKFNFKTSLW
Experimental: Enzymatic trapping assay is to measure the dissociation process of PARP1 from fluorescein-labeled DNA during the enzymatic activity. Assay was conducted at a total 10 μL of reaction volume, including 10 nM PARP1 and 5 nM DNA probe in the binding buffer (50 mM Tris-HCl pH 8.0, 50 mM NaCl, 1 mM MgCl2, 0.1 mM EDTA, and 0.01% IGEPAL), and was commenced by adding a final concentration of 2 mM NAD+ substrate.
PARP1 Poly-ADP ribosylation (PARylation) inhibitory assay was conducted with compounds dissolved in DMSO at a starting concentration of 5 μM. Dissolved compounds were added to 384-well microplate and premixed with PARPI enzyme and DNA probe for 20 minutes incubation. Enzymatic reactions were started by adding NAD+ to mixture, and each well was read at 30 minutes by microplate reader (VICTOR Nivo®, PerkinElmer) to detect the fluorescence polarization signal at 480 nm excitation/530 nm dual emission.
All measured IC50 values were calculated using four parameters dose-response inhibition model in GraphPad Prism 8.0.2 (La Jolla, California, USA, www.graphpad.com).

[2] = biological target: PARP2 (Homo sapiens, UniProt Q9UGN5); assay: PARP2-FL displacement assay; format: binding; conditions: 20 nM PARP2, 3 nM PARPi-FL, 4 hours incubation, fluorescence polarization
Sequence of PARP2 (Q9UGN5 whole entry): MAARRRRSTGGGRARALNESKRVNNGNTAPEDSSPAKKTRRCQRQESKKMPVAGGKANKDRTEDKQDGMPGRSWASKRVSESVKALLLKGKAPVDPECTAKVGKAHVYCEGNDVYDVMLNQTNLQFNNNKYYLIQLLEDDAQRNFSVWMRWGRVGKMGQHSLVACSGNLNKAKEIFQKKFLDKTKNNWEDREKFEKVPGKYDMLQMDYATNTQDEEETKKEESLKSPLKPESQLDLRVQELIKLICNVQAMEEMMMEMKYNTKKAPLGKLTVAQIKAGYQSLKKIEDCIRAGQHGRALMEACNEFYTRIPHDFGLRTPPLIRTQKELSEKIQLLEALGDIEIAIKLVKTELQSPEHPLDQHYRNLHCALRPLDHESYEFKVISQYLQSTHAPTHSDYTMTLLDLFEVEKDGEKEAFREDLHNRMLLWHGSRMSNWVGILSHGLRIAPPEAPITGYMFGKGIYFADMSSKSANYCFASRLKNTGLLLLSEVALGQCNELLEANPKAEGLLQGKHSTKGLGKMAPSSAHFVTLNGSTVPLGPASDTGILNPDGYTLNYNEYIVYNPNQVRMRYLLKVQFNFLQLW
Experimental: A potent PARP inhibitor (PARPi-FL, Cat No. 6461, Tocris Bioscience) conjugated to BDY FL fluorophore was adopted to characterize the activity of PARP2 by measuring the displacement of binding of PARPi-FL to PARP2. Compounds to be tested were prepared at a concentration of 1-10 mM, and made a 3-fold serial dilution by 100% DMSO in a polypropylene plate (Bio-One small volume microplate, black, Cat No. 784076, Greiner). 100 nL of test compounds were dispensed into a 384-well polypropylene microplate and added 10 μL of reaction solution including premixed 20 nM PARP2 and 3 nM PARPi-FL. After 4 hours of incubation at room temperature, the fluorescence polarization signal at 480/30 nm excitation and 530/30 nm dual emission was measured by VICTOR Nivo® multimode plate reader (PerkinElmer). All of the measured IC50 values were calculated using four parameters dose-response inhibition model in GraphPad Prism 8.0.2 (La Jolla, California, USA, www.graphpad.com).

[3] = tested on: MDA-MB-436 cells; assay: Cell proliferation assay (MDA-MB-436); format: cell-based; conditions: at least 7 days, Cell-Titer Glo, read-out: MDA-MB-436 anti-proliferation assay
Experimental: (§1) For PARPi sensitivity, exponentially growing MDA-MB-436 and DLD1 BRCA2^−/− cells were seed in 96 or 384-well plates at very low density with the goal of not splitting for at least 7 days (typically 0.3k-1.2k cells/well). Cells were plated on […] and treated with DMSO or increasing concentrations of PARP1 inhibitors on Day 0. At the end of the experiment, cell viability was estimated using Cell-Titer Glo (Promega).

[4] = tested on: DLD1 BRCA2−/− cells; assay: Cell proliferation assay (DLD1 BRCA2−/−); format: cell-based; conditions: at least 7 days, Cell-Titer Glo, read-out: DLD1 BRCA2−/− anti-proliferation assay
Experimental: as §1

[5] = Homo sapiens, MDA-MB-436, 168 h

IC50 [1] [nM]	IC50 [2] [nM]	IC50 [3, 5] [nM]	IC50 ([4]; Homo sapiens, DLD-1, 168 h) [nM]	IC50 [3] [nM]	IC50 [4] [nM]	SMILES
5.3	574	0.5	0.7			CCNC(=O)c1ccc(N2C[C@H]3CN(Cc4cnc5c6c(c(=O)[nH]c5c4)COCC6)C[C@@H]3C2)c(F)n1 [Compound 76]
9.61	2110	1.03	2.16			COCCNC(=O)c1ccc(N2C[C@H]3CN(Cc4cnc5c6c(c(=O)[nH]c5c4)CCC6)C[C@@H]3C2)c(F)n1 [Compound 49]
2.92	676	0.24	0.81			O=C(NC1COC1)c1ccc(N2C[C@H]3CN(Cc4ccc5c6c(c(=O)[nH]c5c4)COCC6)C[C@@H]3C2)c(F)n1 [Compound 69]
6.22	334	0.36	0.63			CNC(=O)c1ccc(N2C[C@H]3CN(Cc4ccc5c6c(c(=O)[nH]c5c4)COCC6)C[C@@H]3C2)cn1 [Compound 65]
12	2050	0.74	1.02			CNC(=O)c1ccc(N2C[C@H]3CN(Cc4cnc5c6c(c(=O)[nH]c5c4)CCC6)C[C@@H]3C2)c(F)n1 [Compound 48]
5.05	500	0.18	0.44			CNC(=O)c1ccc(N2C[C@H]3CN(Cc4cnc5c6c(c(=O)[nH]c5c4)COCC6)C[C@@H]3C2)c(F)n1 [Compound 71]
4.87	219	0.12	0.52			CNC(=O)c1ccc(N2C[C@H]3CN(Cc4ccc5c6c(c(=O)[nH]c5c4)COCC6)C[C@@H]3C2)c(F)n1 [Compound 66]
7.52	1100	0.23	0.22			CCc1cc2ncc(CN3C[C@@H]4CN(c5ccc(C(=O)NC)nc5F)C[C@H]4C3)cc2[nH]c1=O [Compound 27]
9.28	4050	0.62	0.77			CCc1cc2cnc(CN3C[C@@H]4CN(c5ccc(C(=O)NC)nc5F)C[C@H]4C3)cc2[nH]c1=O [Compound 40]
6.44	7100	0.45	0.54			CNC(=O)c1ccc(N2C[C@H]3CN(Cc4cc5[nH]c(=O)c6c(c5cn4)CCC6)C[C@@H]3C2)c(F)n1 [Compound 54]
8.01	2900	0.24	0.55			O=C(NC1COC1)c1ccc(N2C[C@H]3CN(Cc4cnc5c(c4)[nH]c(=O)c4cccn45)C[C@@H]3C2)c(F)n1 [Compound 64]
7.66	147	0.54	0.54			O=C(NC1COC1)c1ccc(N2C[C@H]3CN(Cc4cnc5c6c(c(=O)[nH]c5c4)CCCC6)C[C@@H]3C2)c(F)n1 [Compound 83]
8.21	2440	1.66	3.01			COCCNC(=O)c1ccc(N2C[C@H]3CN(Cc4cnc5c(c4)[nH]c(=O)c4cccn45)C[C@@H]3C2)cn1 [Compound 46]
7.68		2.51	12.9			O=C(NC1CCOCC1)c1ccc(N2C[C@H]3CN(Cc4cc5[nH]c(=O)c6c(c5cn4)CCC6)C[C@@H]3C2)c(F)n1 [Compound 58]
9.73				3.93	5.02	CCc1cc2ncc(CN3C[C@H]4CN(c5ccc(C(=O)NC)nc5F)C[C@@H]4C3)cc2[nH]c1=O [Compound 28]
33.1				9.85	5.59	CCC1Oc2ncc(CN3C[C@H]4CN(c5ccc(C(=O)NC)nc5)C[C@@H]4C3)cc2NC1=O (mixture of isomers) [Compound 14]
26.7		1.41	9.14			CNC(=O)c1ccc(N2C[C@H]3CN(Cc4ccc5c6c(c(=O)[nH]c5c4)CCOC6)C[C@@H]3C2)cn1 [Compound 78]

IC50 [1] [nM]	IC50 [2] [nM]	IC50 [3, 5] [nM]	IC50 ([4]; Homo sapiens, DLD-1, 168 h) [nM]	IC50 [3] [nM]	IC50 [4] [nM]	SMILES
8.35		0.98	1.49			CNC(=O)c1ccc(N2C[C@H]3CN(Cc4ccc5nc(C)c(=O)[nH]c5c4)C[C@@H]3C2)c(F)n1 [Compound 31]
7.86		1.05	4.04			O=C(N[C@@H]1CCOC1)c1ccc(N2C[C@H]3CN(Cc4cnc5c6c(c(=O)[nH]c5c4)CCC6)C[C@@H]3C2)c(F)n1 [Compound 50]
27.3		11.4	12.7			CCC1Oc2ncc(CN3C[C@H]4CN(c5ccc(C(=O)NC6CC6)nc5F)C[C@@H]4C3)cc2NC1=O (mixture of isomers) [Compound 18]
10.9		0.59	0.87			CNC(=O)c1ccc(N2C[C@H]3CN(Cc4cnc5cc(C)c(=O)[nH]c5c4)C[C@@H]3C2)c(F)n1 [Compound 29]
10.8			1.29	1.76		CCc1cc2ncc(CN3C[C@H]4CN(c5ccc(C(=O)NC)nc5)C[C@@H]4C3)cc2[nH]c1=O [Compound 9]
17.8		1.91	1.76			CNC(=O)c1ccc(N2C[C@@H]3CN(Cc4cnc5cc(C)c(=O)[nH]c5c4)C[C@H]3C2)c(F)n1 (racemic) [Compound 21]
13.5		4.63	5.98			CCc1nc2ncc(CN3C[C@@H]4CN(c5ccc(C(=O)NC)nc5F)C[C@H]4C3)cc2[nH]c1=O [Compound 37]
323		> 500	> 500			CNC(=O)c1ccc(N2C[C@@H]3CN(Cc4ccc5nc(C)c(=O)[nH]c5c4F)C[C@H]3C2)c(F)n1 [Compound 11]
10.5		0.78	1.09			CCc1cc2ncc(CN3C[C@@H]4CN(c5ccc(C(=O)NCCOC)nc5F)C[C@H]4C3)cc2[nH]c1=O [Compound 34]
10.7				0.4	1.98	CCc1cc2ncc(CN3C[C@H]4CN(c5ccc(C(=O)NC)nc5)C[C@@H]4C3)cc2[nH]c1=O (racemic) [Compound 2]
5.17		0.71	3.37			O=C(N[C@@H]1CCOC1)c1ccc(N2C[C@H]3CN(Cc4cc5[nH]c(=O)c6c(c5cn4)CCC6)C[C@@H]3C2)c(F)n1 [Compound 56]
7.6		1.05	4.66			CNC(=O)c1ccc(N2C[C@H]3CN(Cc4cnc5c6c(c(=O)[nH]c5c4)OCCC6)C[C@@H]3C2)c(F)n1 [Compound 81]
9.14		1.35	7.97			O=C(NC1COC1)c1ccc(N2C[C@H]3CN(Cc4ccc5c6c(c(=O)[nH]c5c4)COC6)C[C@@H]3C2)c(F)n1 [Compound 61]
6.96		1.24	4.66			COCCNC(=O)c1ccc(N2C[C@H]3CN(Cc4cc5[nH]c(=O)c6c(c5cn4)CCC6)C[C@@H]3C2)c(F)n1 [Compound 55]
4.32		1.08	8.28			O=C(NC1COC1)c1ccc(N2C[C@H]3CN(Cc4ccc5c6c(c(=O)[nH]c5c4)OCCC6)C[C@@H]3C2)c(F)n1 [Compound 89]
24.8		2.59	4.63			CNC(=O)c1ccc(N2C[C@@H]3CN(Cc4cnc5c(c4)NC(=O)[C@@H]4CCCN54)C[C@H]3C2)cn1 (racemic) [Compound 7]
8.26		0.57	4.98			CO[C@H]1C[C@H](NC(=O)c2ccc(N3C[C@H]4CN(Cc5cnc6c7c(c(=O)[nH]c6c5)COCC7)C[C@@H]4C3)c(F)n2)C1 [Compound 74]
